From patent USRE48335E1, “Polymyxin derivatives as antimicrobial compounds” (priority 2014, dated 2020)
Values after ≈ are worked out from the molar mass of the structure shown. Positions of bridges follow the written chain, without caps; N, C: chain ends. Non-standard residues stand in square brackets, D forms with d. Residues, ends and D or L forms follow the SMILES beside them. *: point of attachment. Tle = CC(C)(C)[C@H](N)C(=O)O; Nonanoyl = CCCCCCCCC(=O)*; dNva = CCC[C@@H](N)C(=O)O; Heptanoyl = CCCCCCC(=O)*; Octanoyl = CCCCCCCC(=O)*; Orn = NCCC[C@H](N)C(=O)O; Dab = NCC[C@H](N)C(=O)O; Dap = NC[C@H](N)C(=O)O; Aib = CC(C)(N)C(=O)O

Legend:
Acinetobacter baumannii = tested on: Acinetobacter baumannii
Description: (§1) MICs of the lipopeptides (trifluoroacetic acid salt, TFA) were determined by broth microdilution in cation-adjusted Mueller-Hinton broth (CAMHB) (Oxoid Australia, Thebarton, SA, Australia) according to Clinical and Laboratory Standards Institute standards (Clinical and Laboratory Standards Institute. Performance standards for antimicrobial susceptibility testing; eighteenth informational supplement M100-S18. Wayne, Pa., 2008). Polymyxin B (sulphate) was employed as control. […]

Enterobacter cloacae = tested on: Enterobacter cloacae
Description: as §1

Pseudomonas aeruginosa = tested on: Pseudomonas aeruginosa
Description: as §1

Compound | Minimum inhibitory concentration, Ab A ATCC 17978 (Acinetobacter baumannii) | Minimum inhibitory concentration, Ab ATCC 19606 (Acinetobacter baumannii) | Minimum inhibitory concentration, Ab FADDI-AB034 (Acinetobacter baumannii) | Minimum inhibitory concentration, Ec FADDI-EC001 (Enterobacter cloacae) | Minimum inhibitory concentration, Ec FADDI-EC003 (Enterobacter cloacae) | Minimum inhibitory concentration, Ec FADDI-EC006 (Enterobacter cloacae) | Minimum inhibitory concentration, Pa ATCC 27853 (Pseudomonas aeruginosa) | Minimum inhibitory concentration, Pa FADDI-PA022 (Pseudomonas aeruginosa) | Minimum inhibitory concentration, Pa FADDI-PA025 (Pseudomonas aeruginosa)
CCCCCCC(=O)N[C@@H](CCN)C(=O)N[C@H](C(=O)N[C@@H](CCN)C(=O)N[C@H]1CCNC(=O)[C@H]([C@@H](C)O)NC(=O)[C@H](CCN)NC(=O)[C@H](CCN)NC(=O)[C@H]([C@@H](C)O)NC(=O)[C@@H](CC(C)C)NC(=O)[C@H](CCN)NC1=O)[C@@H](C)O [Compound 42] (Heptanoyl-[Dab]T[Dab][Dab][Dab][dL]T[Dab][Dab]T; lactam 4-C) | 4 µg/mL (≈ 3.54 µM) | 4 µg/mL (≈ 3.54 µM) | 2 µg/mL (≈ 1.77 µM) | <0.125 µg/mL | <0.125 µg/mL | 0.25 µg/mL (≈ 0.221 µM) | 0.5 µg/mL (≈ 0.443 µM) | 2 µg/mL (≈ 1.77 µM) | >32 µg/mL
CCCCCCCCC(=O)N[C@@H](CCN)C(=O)N[C@H](C(=O)N[C@@H](CCN)C(=O)N[C@H]1CCNC(=O)[C@H]([C@@H](C)O)NC(=O)[C@H](CCN)NC(=O)[C@H](CCN)NC(=O)[C@H]([C@@H](C)O)NC(=O)[C@@H](CC(C)C)NC(=O)[C@H](CCN)NC1=O)[C@@H](C)O [Compound 43] (Nonanoyl-[Dab]T[Dab][Dab][Dab][dL]T[Dab][Dab]T; lactam 4-C) | 0.5 µg/mL (≈ 0.432 µM) | 0.5 µg/mL (≈ 0.432 µM) | 1 µg/mL (≈ 0.864 µM) | 0.25 µg/mL (≈ 0.216 µM) | <0.125 µg/mL | 0.5 µg/mL (≈ 0.432 µM) | 0.5 µg/mL (≈ 0.432 µM) | 1 µg/mL (≈ 0.864 µM) | 16 µg/mL (≈ 13.8 µM)
CCCCCCC(=O)N[C@@H](CCN)C(=O)N[C@H](C(=O)N[C@@H](CN)C(=O)N[C@H]1CCNC(=O)[C@H]([C@@H](C)O)NC(=O)[C@H](CCN)NC(=O)[C@H](CCN)NC(=O)[C@H]([C@@H](C)O)NC(=O)[C@@H](CC(C)C)NC(=O)[C@H](CCN)NC1=O)[C@@H](C)O [Compound 44] (Heptanoyl-[Dab]T[Dap][Dab][Dab][dL]T[Dab][Dab]T; lactam 4-C) | 1 µg/mL (≈ 0.897 µM) | 1 µg/mL (≈ 0.897 µM) | 1 µg/mL (≈ 0.897 µM) | 0.25 µg/mL (≈ 0.224 µM) | <0.125 µg/mL | <0.125 µg/mL | 0.5 µg/mL (≈ 0.448 µM) | 1 µg/mL (≈ 0.897 µM) | 16 µg/mL (≈ 14.3 µM)
CCCCCCCC(=O)N[C@@H](CCN)C(=O)N[C@H](C(=O)N[C@@H](CN)C(=O)N[C@H]1CCNC(=O)[C@H]([C@@H](C)O)NC(=O)[C@H](CCN)NC(=O)[C@H](CCN)NC(=O)C(C)(C)NC(=O)[C@@H](CC(C)C)NC(=O)[C@H](CCN)NC1=O)[C@@H](C)O [Compound 45] (Octanoyl-[Dab]T[Dap][Dab][Dab][dL][Aib][Dab][Dab]T; lactam 4-C) | 4 µg/mL (≈ 3.59 µM) | 8 µg/mL (≈ 7.19 µM) | 2 µg/mL (≈ 1.8 µM) | 0.5 µg/mL (≈ 0.449 µM) | 0.25 µg/mL (≈ 0.225 µM) | 0.5 µg/mL (≈ 0.449 µM) | 0.5 µg/mL (≈ 0.449 µM) | 1 µg/mL (≈ 0.898 µM) | 16 µg/mL (≈ 14.4 µM)
CCCCCCCC(=O)N[C@@H](CCN)C(=O)N[C@H](C(=O)N[C@@H](CN)C(=O)N[C@H]1CCNC(=O)[C@H]([C@@H](C)O)NC(=O)[C@H](CCN)NC(=O)[C@H](CCN)NC(=O)[C@H](C(C)(C)C)NC(=O)[C@@H](CC(C)C)NC(=O)[C@H](CCN)NC1=O)[C@@H](C)O [Compound 47] (Octanoyl-[Dab]T[Dap][Dab][Dab][dL][Tle][Dab][Dab]T; lactam 4-C) | 2 µg/mL (≈ 1.75 µM) | 8 µg/mL (≈ 7.01 µM) | 1 µg/mL (≈ 0.876 µM) | 0.5 µg/mL (≈ 0.438 µM) | 0.5 µg/mL (≈ 0.438 µM) | 0.25 µg/mL (≈ 0.219 µM) | 1 µg/mL (≈ 0.876 µM) | 1 µg/mL (≈ 0.876 µM) | 8 µg/mL (≈ 7.01 µM)
CCCCCCCC(=O)N[C@@H](CN)C(=O)N[C@H](C(=O)N[C@@H](CN)C(=O)N[C@H]1CCNC(=O)[C@H]([C@@H](C)O)NC(=O)[C@H](CCN)NC(=O)[C@H](CCN)NC(=O)[C@H]([C@@H](C)O)NC(=O)[C@@H](CC(C)C)NC(=O)[C@H](CCN)NC1=O)[C@@H](C)O [Compound 48] (Octanoyl-[Dap]T[Dap][Dab][Dab][dL]T[Dab][Dab]T; lactam 4-C) | 1 µg/mL (≈ 0.897 µM) | 1 µg/mL (≈ 0.897 µM) | 1 µg/mL (≈ 0.897 µM) | 0.25 µg/mL (≈ 0.224 µM) | <0.125 µg/mL | <0.125 µg/mL | 0.5 µg/mL (≈ 0.448 µM) | 2 µg/mL (≈ 1.79 µM) | 4 µg/mL (≈ 3.59 µM)
CCCCCCCC(=O)N[C@@H](CCN)C(=O)N[C@H](C(=O)N[C@@H](CN)C(=O)N[C@H]1CCNC(=O)[C@H]([C@@H](C)O)NC(=O)[C@H](CCN)NC(=O)[C@H](CCN)NC(=O)[C@H]([C@@H](C)O)NC(=O)[C@@H](CCC)NC(=O)[C@H](CCN)NC1=O)[C@@H](C)O [Compound 49] (Octanoyl-[Dab]T[Dap][Dab][Dab][dNva]T[Dab][Dab]T; lactam 4-C) | 0.5 µg/mL (≈ 0.448 µM) | 1 µg/mL (≈ 0.897 µM) | 0.5 µg/mL (≈ 0.448 µM) | 0.5 µg/mL (≈ 0.448 µM) | 0.5 µg/mL (≈ 0.448 µM) | 0.25 µg/mL (≈ 0.224 µM) | 0.5 µg/mL (≈ 0.448 µM) | 0.25 µg/mL (≈ 0.224 µM) | 16 µg/mL (≈ 14.3 µM)
CCCCCCCC(=O)N[C@@H](CCN)C(=O)N[C@H](C(=O)N[C@@H](CN)C(=O)N[C@H]1CCNC(=O)[C@H]([C@@H](C)O)NC(=O)[C@H](CN)NC(=O)[C@H](CCN)NC(=O)[C@H]([C@@H](C)O)NC(=O)[C@@H](CC(C)C)NC(=O)[C@H](CCN)NC1=O)[C@@H](C)O [Compound 50] (Octanoyl-[Dab]T[Dap][Dab][Dab][dL]T[Dab][Dap]T; lactam 4-C) | 0.5 µg/mL (≈ 0.448 µM) | 0.5 µg/mL (≈ 0.448 µM) | 1 µg/mL (≈ 0.897 µM) | <0.125 µg/mL | <0.125 µg/mL | <0.125 µg/mL | 1 µg/mL (≈ 0.897 µM) | 0.5 µg/mL (≈ 0.448 µM) | >32 µg/mL
CCCCCCCC(=O)N[C@@H](CCN)C(=O)N[C@H](C(=O)N[C@@H](CN)C(=O)N[C@H]1CCNC(=O)[C@H]([C@@H](C)O)NC(=O)[C@H](CCN)NC(=O)[C@H](CN)NC(=O)[C@H]([C@@H](C)O)NC(=O)[C@@H](CC(C)C)NC(=O)[C@H](CCN)NC1=O)[C@@H](C)O [Compound 51] (Octanoyl-[Dab]T[Dap][Dab][Dab][dL]T[Dap][Dab]T; lactam 4-C) | 4 µg/mL (≈ 3.59 µM) | 4 µg/mL (≈ 3.59 µM) | 8 µg/mL (≈ 7.17 µM) | 0.25 µg/mL (≈ 0.224 µM) | 0.25 µg/mL (≈ 0.224 µM) | 1 µg/mL (≈ 0.897 µM) | 1 µg/mL (≈ 0.897 µM) | 0.5 µg/mL (≈ 0.448 µM) | >32 µg/mL
CCCCCCCC(=O)N[C@@H](CCN)C(=O)N[C@H](C(=O)N[C@@H](CN)C(=O)N[C@H]1CCNC(=O)[C@H]([C@@H](C)O)NC(=O)[C@H](CCN)NC(=O)[C@H](CCN)NC(=O)[C@H]([C@@H](C)O)NC(=O)[C@@H](CC(C)C)NC(=O)[C@H](CN)NC1=O)[C@@H](C)O [Compound 52] (Octanoyl-[Dab]T[Dap][Dab][Dap][dL]T[Dab][Dab]T; lactam 4-C) | 0.5 µg/mL (≈ 0.448 µM) | 1 µg/mL (≈ 0.897 µM) | 0.5 µg/mL (≈ 0.448 µM) | 0.25 µg/mL (≈ 0.224 µM) | 0.25 µg/mL (≈ 0.224 µM) | 0.5 µg/mL (≈ 0.448 µM) | 0.5 µg/mL (≈ 0.448 µM) | 1 µg/mL (≈ 0.897 µM) | >32 µg/mL
CCCCCCCC(=O)N[C@@H](CCN)C(=O)N[C@H](C(=O)N[C@@H](CN)C(=O)N[C@H]1CCNC(=O)[C@H]([C@@H](C)O)NC(=O)[C@H](CCCN)NC(=O)[C@H](CCN)NC(=O)[C@H]([C@@H](C)O)NC(=O)[C@@H](CC(C)C)NC(=O)[C@H](CCN)NC1=O)[C@@H](C)O [Compound 53] (Octanoyl-[Dab]T[Dap][Dab][Dab][dL]T[Dab][Orn]T; lactam 4-C) | 8 µg/mL (≈ 7 µM) | 16 µg/mL (≈ 14 µM) | 8 µg/mL (≈ 7 µM) | 0.5 µg/mL (≈ 0.437 µM) | 2 µg/mL (≈ 1.75 µM) | 8 µg/mL (≈ 7 µM) | 8 µg/mL (≈ 7 µM) | 2 µg/mL (≈ 1.75 µM) | >32 µg/mL
